Measurements from patent US20090030073A1, “PLANT-DERIVED THERAPEUTIC AGENT FOR MALIGNANT” (priority 2006, published 2009).

Tested on: neuroblastoma cell strains IMR-32, SK—N—SH, and NB-39
Experiment: MTT assay, anti-malignant-tumor effect on neuroblastoma cell strains
Format: cell-based
Conditions: 48 hours incubation
Description: The anti-malignant-tumor effect of compounds (1), (2a), (2b), and (2c) on neuroblastoma cell strains IMR-32, SK—N—SH, and NB-39 was investigated using the MTT assay.
Specifically, each type of cells was seeded onto a 96-well plate so that the cell density was adjusted to 1×10^4 cells/well, and each drug compound was added to the wells 24 hours after seeding, followed by incubation under 5%-CO2 at 37° C. for 48 hours. Subsequently, an MTT solution was added to the wells, and blue formazan formed three hours after addition was well-mixed through pipetting. The absorbance of each well was measured at 570 nm (top) and 655 nm (bottom), and the survival cell rate with respect to the control group was calculated. In this assay, formation of blue formazan caused by activity of mitochondria is observed only when cells survive.

Structure (SMILES) | cytotoxicity to neuroblastoma cells (survival cell rate, FIGS. 2 to 13)
C=CC[C@]12CC=CC(=O)[C@@]1(O)O[C@H](c1cc(OC)c3c(c1)OCO3)[C@H]2C [compound (2c), ferrearin G] | intense cytotoxicity
C=CCOc1c(OC)cc2c(c1OC)O[C@H](c1ccc3c(c1)OCO3)[C@H]2C [compound (1)] | intense cytotoxicity
C=CC[C@]12CC=CC(=O)[C@@]1(O)O[C@H](c1ccc(OC)c(OC)c1)[C@H]2C [compound (2a)] | intense cytotoxicity
C=CC[C@]12CC=CC(=O)[C@@]1(O)OC(c1ccc3c(c1)OCO3)[C@H]2C (stereo partly shown) [compound (2b), ferrearin C] | intense cytotoxicity
